Data published in patent US8883964B2, “Compositions comprising modified collagen and uses therefor” (The Johns Hopkins University, priority 2004, dated 2014).
Blank lines part the entries; values can stand above or below the compound they belong to.

Assays:
[1] = biological target: T1, collagen films (type I, bovine) (Bos taurus, UniProt P02453+P02465); assay: CMP-collagen film affinity study (fluorescence intensity of treated films); type: binding; details: for affinity toward collagen film (fluorescence intensity): solution pre-equilibrated at 25° C. or 80° C., both conditions, 3 h at room temperature
T1 construct: natural collagen (acid soluble, bovine type I); purchased Sigma
T1 sequence (P02453 162-1217 limits assumed): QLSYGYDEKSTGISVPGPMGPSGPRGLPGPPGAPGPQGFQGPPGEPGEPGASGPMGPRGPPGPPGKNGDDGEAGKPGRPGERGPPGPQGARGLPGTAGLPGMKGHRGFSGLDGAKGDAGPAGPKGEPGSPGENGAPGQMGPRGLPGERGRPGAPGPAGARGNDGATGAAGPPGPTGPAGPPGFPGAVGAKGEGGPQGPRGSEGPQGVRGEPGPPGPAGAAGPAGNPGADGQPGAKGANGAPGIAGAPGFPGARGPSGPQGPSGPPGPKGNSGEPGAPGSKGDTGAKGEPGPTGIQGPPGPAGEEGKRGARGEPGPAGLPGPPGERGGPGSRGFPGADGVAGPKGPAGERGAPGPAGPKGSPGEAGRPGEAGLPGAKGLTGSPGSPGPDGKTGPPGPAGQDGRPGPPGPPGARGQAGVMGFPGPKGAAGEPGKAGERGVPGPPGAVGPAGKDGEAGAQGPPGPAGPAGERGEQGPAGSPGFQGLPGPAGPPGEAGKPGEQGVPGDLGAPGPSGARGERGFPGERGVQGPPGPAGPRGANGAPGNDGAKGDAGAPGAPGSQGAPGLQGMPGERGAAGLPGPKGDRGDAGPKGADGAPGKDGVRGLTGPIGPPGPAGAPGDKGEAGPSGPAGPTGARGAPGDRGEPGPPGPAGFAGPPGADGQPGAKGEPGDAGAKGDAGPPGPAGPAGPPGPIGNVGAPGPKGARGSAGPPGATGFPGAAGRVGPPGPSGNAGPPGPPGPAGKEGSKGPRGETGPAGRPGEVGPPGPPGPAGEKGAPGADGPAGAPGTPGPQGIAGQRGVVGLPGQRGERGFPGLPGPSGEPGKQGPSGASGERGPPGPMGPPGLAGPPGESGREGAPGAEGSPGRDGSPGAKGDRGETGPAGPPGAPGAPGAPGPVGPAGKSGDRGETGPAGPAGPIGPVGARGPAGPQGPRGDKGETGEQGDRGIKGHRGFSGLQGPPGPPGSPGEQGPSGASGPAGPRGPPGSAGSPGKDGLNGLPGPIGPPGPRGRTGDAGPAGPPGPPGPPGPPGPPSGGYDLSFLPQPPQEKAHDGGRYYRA
T1 sequence (P02465 80-1117 limits assumed): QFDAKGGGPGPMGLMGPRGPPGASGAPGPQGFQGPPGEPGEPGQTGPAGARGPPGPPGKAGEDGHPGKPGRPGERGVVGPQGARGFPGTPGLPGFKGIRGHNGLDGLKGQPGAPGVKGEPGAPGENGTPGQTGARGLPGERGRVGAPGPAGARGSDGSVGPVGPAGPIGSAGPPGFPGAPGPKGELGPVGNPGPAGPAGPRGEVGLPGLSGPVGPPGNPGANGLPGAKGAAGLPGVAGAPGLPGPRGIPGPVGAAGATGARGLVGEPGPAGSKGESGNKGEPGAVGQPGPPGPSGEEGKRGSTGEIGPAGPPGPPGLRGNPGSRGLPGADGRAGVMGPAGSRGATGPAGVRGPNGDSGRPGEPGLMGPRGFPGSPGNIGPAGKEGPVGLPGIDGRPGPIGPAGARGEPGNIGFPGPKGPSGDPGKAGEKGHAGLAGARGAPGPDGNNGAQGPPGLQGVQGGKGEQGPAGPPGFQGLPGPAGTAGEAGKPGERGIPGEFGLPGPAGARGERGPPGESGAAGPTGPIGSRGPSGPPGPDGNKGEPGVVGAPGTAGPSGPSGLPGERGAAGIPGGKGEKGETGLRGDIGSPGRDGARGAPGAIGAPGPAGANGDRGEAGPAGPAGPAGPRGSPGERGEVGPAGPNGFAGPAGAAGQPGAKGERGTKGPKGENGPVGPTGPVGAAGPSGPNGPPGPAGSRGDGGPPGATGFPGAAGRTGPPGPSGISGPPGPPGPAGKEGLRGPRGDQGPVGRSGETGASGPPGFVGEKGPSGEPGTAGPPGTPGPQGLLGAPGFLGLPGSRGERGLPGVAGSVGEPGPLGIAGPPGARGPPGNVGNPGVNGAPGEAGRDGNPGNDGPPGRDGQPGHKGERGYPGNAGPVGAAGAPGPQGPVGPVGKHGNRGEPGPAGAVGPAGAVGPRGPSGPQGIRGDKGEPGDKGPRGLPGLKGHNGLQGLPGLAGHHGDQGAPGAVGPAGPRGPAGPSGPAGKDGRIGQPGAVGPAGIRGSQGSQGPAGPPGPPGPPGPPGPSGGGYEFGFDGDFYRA
Method: The transition melting temperature of collagen film as determined by circular dichroism spectroscopy is shown at FIG. 4. To the collagen-coated cell culture wells (at room temperature) was added a solution of 2 which was pre-equilibrated at either 25° C. or 80° C. After three hours of incubation at room temperature, the collagen films were washed with buffer solution and observed by fluorescence microscope. As control samples, 5CF, fluorescein isothiocyanate-dextran (FITC-Dextran), and peptide 3 were used to treat collagen films under identical experimental conditions. […] Similar results were obtained when gelatin films were used as a substrate (FIG. 5A: Group c). In addition, the helical content of CMP treated collagen film was 3.5 times higher than that of the film treated with a blank solution (see support information).
In order to understand the effect of collagen film denaturation in the CMP binding process, a shorter CMP derivative was synthesized, peptide 4, with a melting temperature (25° C.) well below that of the collagen film. […] In addition, the modified collagen fiber retained its native banding texture when investigated by transmission electron microscopy (FIG. 6). Hotter solutions (60° C. and 80° C.) which denature the collagen film during the treatment produced collagen films with slightly higher CMP content (approximately 20% increase from that of the […] solution).
To each well of a 96-well culture plate was added 200 μl of saturated collagen (acid soluble, type I bovine) solution in 0.5 M acetic acid. The culture plate was air-dried to form transparent collagen films. The films were neutralized with 0.01 M potassium phosphate buffer (pH 7.4), and washed with distilled water. To the collagen-coated wells were added 40 μl of 0.01 M potassium phosphate solutions (pH 7.4) containing 50 μM of either CF (5-carboxyfluorescein), FITC-Dextran, and peptides 2, 3, or 4, which were pre-equilibrated at 25° C. or 80° C. After 3 hours of incubation at room temperature, the wells were washed with 0.01 M potassium phosphate buffer solution (pH 7.4) and observed by fluorescence microscope (Eclips ME 600, Nikon Corp). The total fluorescence intensity was acquired from the fluorescence micrographs using Meta Imaging Series V4.5, (Universal Imaging Corporation, Dowingtown Pa.). Average values of four independent experiments are reported.

[2] = Circular dichroism thermal melting (triple helix transition temperature); type: physicochemical; details: for Tm (transition temperature determined by circular dichroism spectroscopy): measured in 57.5 μM acetic acid solution
Method: Circular dichroism (CD) spectra were recorded on JASCO 710 spectrometer equipped with JASCO PTC-348 WI temperature controller and Hellma cell (400 μL, 0.1 mm pathlength). The thermal melting curves were obtained by measuring the molar ellipticity at 225 nm with 1° C./min heating rate. All samples (57 μM in 50 mM acetic acid) were stored at 4° C. for 24 hours before the CD measurement.
The thermal melting curves were obtained by measuring the ellipticity of peptide in deionized (DI) water (0.5˜2 mM) at 225 nm with 0.1° C./min heating rate. All samples were stored at 4° C. for 24 hours before the measurement. (FIG. 15)
Triple-helical conformation of the CMP was confirmed by circular dichroism (CD) spectroscopy. Peptide samples (250 or 500 μM) were prepared in distilled water and incubated at 4° C. overnight before the CD measurement. CD was recorded between 180 and 280 nm on a JASCO'710 CD spectrometer at various temperatures under a nitrogen flow. Each measurement had static equilibrium time of 30 minutes.

[3] = comparison value; cited from earlier work
[4] = tested on: Human fibroblasts (CRL-1502); assay: Cell adhesion study on treated collagen film, human fibroblasts; type: cell-based; details: three days at 37° C.
Method: (§1) The melting temperature of 5 was determined to be 29° C. which is 7° C. lower than the melting temperature of (ProHypGly)7 (SEQ ID NO: 40) (Table 1).^27 Here, the hydrophilic and bulky PEG group seems to destabilize the triple helix in water. A solution containing 5 at 45° C. was added to the collagen coated culture plate (prepared as above) and human fibroblasts or breast epithelial cells were seeded and incubated for three days at 37° C. […] In contrast, areas of collagen films treated with 5 are almost devoid of fibroblasts (FIG. 7B) and epithelial cells (FIG. 7C).
(§2) To the collagen film (prepared as above) was added 10 μl of peptide 5 solution (2 mM in pH 7.4 potassium phosphate buffer). The film was allowed to dry and excess materials were removed by washing with potassium phosphate buffer (pH 7.4, 50 mM) and culture medium (DMEM or IMDM). Cells were added to the culture well and incubated at room temperature for 30 minutes. Human fibroblasts (CRL-1502) were seeded at 4.5×10^5 cell/ml cell density in DMEM and breast epithelial cells (MCF-7) at 5.6×10^5 cells/ml density in cell culture media (IMDM). The nonattached cells were removed by rinsing the well three times with growth medium and PBS buffer. The remaining cells were incubated at 37° C. (5% CO2) for three days. The growth medium was exchanged after 48 hours.

[5] = tested on: breast epithelial cells (MCF-7); assay: Cell adhesion study on treated collagen film, breast epithelial cells; type: cell-based, human; details: for invasion of treated films by fibroblasts or epithelial cells: summary statement
Method: as §1
For applications where it is desirable to repel cell growth for prolonged periods (e.g., weeks or months), it is desirable to employ CMPs of increased length. In films that were treated with mPEG2000-Gly3-(Pro-Hyp-Gly)7 (SEQ ID NO: 6), cell growth extending into the treated area was observed after 3 days in culture (FIGS. 9A, 9B, and 9C). This might be due to the release of mPEG2000-Gly3-(Pro-Hyp-Gly)7 (SEQ ID NO: 6) from the PEG-CMP modified collagen film during incubation at 37° C.
(Pro-Hyp-Gly)8-Gly3-PEG5000-OH (SEQ ID NO: 26) with lengthened CMP and PEG, was designed to prolong the anti-adhesive property of pegylated CMP modified collagen to cells. Its melting temperature is 38° C. in PBS solution. A delay in invasive cell growth was observed on areas of the collagen film treated with (Pro-Hyp-Gly)8-Gly3-PEG5000-OH (SEQ ID NO: 26) (FIGS. 10A and FIG. 10B). […] It can also be seen from the images that cells outside the treated area grow vertically before invading the treated area.
as §2

collagen film = biological target: T2, collagen film (Bos taurus, UniProt P02453+P02465); assay: Release of fluorescence-labeled CMP derivatives from collagen films; details: 37° C., PBS solution pH 7.4
T2 construct: natural collagen (acid soluble, bovine type I); purchased Sigma
T2 sequence (P02453 162-1217 limits assumed): as the sequence (P02453 162-1217 limits assumed) above
T2 sequence (P02465 80-1117 limits assumed): as the sequence (P02465 80-1117 limits assumed) above
Description: The release of fluorescence-labeled PEG-CMPs derivatives from collagen films is shown in (FIG. 11).

collagen fibers (type I) = biological target: T3, collagen fibers (type I) (Bos taurus, UniProt P02453+P02465); assay: TEM analysis of the modified collagen fibers; set-up: species or system bovine; details: treatment at 30° C.
T3 construct: natural collagen (acid soluble, bovine type I); purchased Sigma
T3 sequence (P02453 162-1217 limits assumed): as the sequence (P02453 162-1217 limits assumed) above
T3 sequence (P02465 80-1117 limits assumed): as the sequence (P02465 80-1117 limits assumed) above
Method: Collagen fibers were prepared by dialysis of collagen in 0.01M acetic acid solution against dilute NaCl solution. Peptide 4 in potassium phosphate buffer (400 μl, 500 μM, pH 7.4) was added to the collagen fibers in the PBS buffer (1 ml, 1 mg/ml, pH 7.4). The mixture was incubated for 3 hours and excess peptide 4 was removed by repeated centrifugation. The collagen fibers were resuspended in deionized water and transferred to a TEM grid. Uranyl acetate was used to stain the collagen fiber. (FIG. 6)

[6] = biological target: T4, Collagen (type I, bovine) film (Bos taurus, UniProt P02453+P02465); assay: Helical content estimation of the modified collagen films by CD
T4 construct: natural collagen (acid soluble, bovine type I); purchased Sigma
T4 sequence (P02453 162-1217 limits assumed): as the sequence (P02453 162-1217 limits assumed) above
T4 sequence (P02465 80-1117 limits assumed): as the sequence (P02465 80-1117 limits assumed) above
Method: Collagen (type I, bovine) film was treated with either peptide 2 solution or blank buffer solution as described before. After 3 hr of incubation at room temperature, the wells were washed with 0.01 M potassium phosphate buffer solution (pH 7.4) and deionized water. All samples were dissolved in 50 mM acetic acid to a concentration of 1.80 μM or 3.60 μM and stored at 4° C. for 24 hours before the CD measurement. Average values of four independent experiments are reported (FIG. 4).

[7] = Circular dichroism thermal melting (triple helix transition temperature); type: physicochemical; details: in PBS solution
[8] = solution pre-equilibrated at 80° C.

Compound: -(ProHypGly)10- [Compound 1]
Tm (transition temperature determined by circular dichroism spectroscopy) [2]: 69 °C

Compound: (Pro-Hyp-Gly)7
melting temperature of unmodified (Pro-Hyp-Gly)7 CMP [3]: 37 °C

Compound: CH3O—(CH2—CH2—O)n—OH [mPEG2000, reference compound]
fibroblasts on treated area of collagen film [4]: Homogenous distribution of fibroblasts

Compound: mPEG2000-Gly3-(ProHypGly)7- [Compound 5]
cell growth extending into the treated area observed after ([5]; in culture at 37° C.): 3 days | invasion of treated films by fibroblasts or epithelial cells [5]: dramatically reduced invasion | epithelial cells on treated area of collagen film ([5]; three days at 37° C.): almost devoid | fibroblasts on treated area of collagen film [4]: almost devoid | melting temperature lower than that of (ProHypGly)7 ([2]; difference): 7 °C | Tm (transition temperature determined by circular dichroism spectroscopy) [2]: 29 °C

Compound: (ProHypGly)7-Tyr
CD melting temperature (midpoint of CD melting curve) ([2]; peptide in distilled water): 38.5 °C

Compound: (Pro-Hyp-Gly)8-Gly3-PEG5000-OH
time for which the treated gel repelled extensive cell growth [5]: close to eleven days | cell invasion into treated areas of the collagen film ([5]; after eleven days in culture): Extensive invasion | cell invasion into treated areas of the collagen film ([5]; after five days in culture): little invasion | cell invasion into treated areas of the collagen film ([5]; after nine days in culture): moderate invasion | invasion of treated films by fibroblasts or epithelial cells [5]: dramatically reduced invasion | melting temperature [7]: 38 °C

The next lines start with the values.

affinity toward collagen film (fluorescence intensity) [1]: negligible affinity
Compound: fluorescein isothiocyanate-dextran [FITC-Dextran, reference compound]

release from collagen film relative to 5CF-Gly3-(Pro-Hyp-Gly)8-Gly3-PEG5000-OH (collagen film): faster
Compound: FL-PEG2000-Gly3-(Pro-Hyp-Gly)7

increase in CMP content of collagen film from that of the 30° C. solution ([1]; hotter solutions (60° C. and 80° C.)): approximately 20% | binding to collagen film ([1]; solution at 10° C.): Little binding | increase in CMP attachment compared to the 10° C. solution ([1]; solution pre-equilibrated at 30° C.): more than three-fold increase | banding pattern of collagen fibers after treatment (collagen fibers (type I)): native banding pattern | Tm (transition temperature determined by circular dichroism spectroscopy) [2]: 25 °C | Tm (transition temperature determined by circular dichroism spectroscopy) ([2]; listed as peptide 4): 25 °C
Compound: 5CF-Gly3-(ProHypGly)6- [Compound 4]

affinity toward collagen film (fluorescence intensity) [1]: negligible affinity
Compound: O=C(O)c1ccc2c(c1)C(=O)OC21c2ccc(O)cc2Oc2cc(O)ccc21 [Compound 5CF, 5-carboxyfluorescein, reference compound]

fluorescence of treated collagen film ([1]; solution pre-equilibrated at 25° C.): negligible fluorescence | fluorescence of treated collagen film [1, 8]: strong fluorescence | helical content of treated collagen film relative to film treated with blank solution [6]: 3.5 times | original helical content of collagen film retained after treatment [6, 8]: 80% | Tm (CD melting transition temperature) ([2]; Cys-CMP derivatives, deionized water, ellipticity at 225 nm): 21 °C | Tm (transition temperature determined by circular dichroism spectroscopy) [2]: 75 °C | Tm (transition temperature determined by circular dichroism spectroscopy) ([2]; listed as peptide 2): 75 °C
Compound: 5CF-Gly3-(ProHypGly)10- [Compound 2]
